Among the test systems are NCI/ADR-RES; NCI-H23; HT-29; U-251; SNB-19; IGROV-1; MDA-MB-435; A498; CAKI-1; M14; LOX IMVI; CCRF-CEM; KM12; SK-MEL-2; A549; OVCAR-5; SN12C; ACHN; Malme-3M; SNB-75.
What all share (assay): NCI-60 cell line screen, 48 h

Results on 7 molecules are retold here after ChEMBL document CHEMBL1201862, “PubChem BioAssay data set” (2004).

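Compound exposure: 48 hours, 5 concentrations, 96-well plates. GI50: concentration for 50% inhibition of growth.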 Activity calls are given as the source filed them. No stated cut-off is given here; in the data, active = GI50 up to about 1.1 µM and inactive = higher.

With `O=C(O)CCSc1nnc(COc2ccc(Cl)cc2)n1-c1ccccc1`, the GI50 in the assay on NCI/ADR-RES, in the assay with NCI-H23, in the assay on HT-29, in the assay with U-251, in the assay on SNB-19 and with IGROV-1 was > 100 µM (inactive) each time. Also, the GI50 is > 100 µM (inactive) with MDA-MB-435; > 100 µM (inactive) in the assay on A498; > 100 µM (inactive) in the assay on CAKI-1; > 100 µM (inactive) in the assay with M14; > 100 µM (inactive) in the assay on LOX IMVI; 95.3 µM (inactive) in the assay with CCRF-CEM. For the same molecule, the GI50 in the assay with KM12, with SK-MEL-2, in the assay on A549, in the assay on OVCAR-5, in the assay with SN12C and in the assay on ACHN was > 100 µM (inactive) in each case. The GI50 in the assay on Malme-3M and in the assay on SNB-75 was > 100 µM (inactive) throughout.
Consider `O=C1/C(=C\c2cccc(Oc3ccccc3)c2)S(=O)(=O)C(c2ccccc2)N1c1cccc(Cl)c1` (stereo not given), for which the GI50 in the assay on NCI/ADR-RES is 35.4 µM (inactive); with NCI-H23, 51.4 µM (inactive); in the assay on HT-29, 30.1 µM (inactive); in the assay on U-251, 50.4 µM (inactive); in the assay with SNB-19, 68.9 µM (inactive); in the assay with IGROV-1, 38.9 µM (inactive). Further, the GI50 in the assay on MDA-MB-435 was 38.5 µM (inactive); with A498, > 100 µM (inactive); in the assay with CAKI-1, 78.2 µM (inactive); with M14 it was 40.8 µM (inactive); with LOX IMVI, 19 µM (inactive); in the assay with CCRF-CEM it was 11.1 µM (inactive). Also, the GI50 with KM12 is 58.1 µM (inactive); with SK-MEL-2, > 100 µM (inactive); in the assay with A549, > 100 µM (inactive); with OVCAR-5 it was > 100 µM (inactive); in the assay with SN12C, 54.8 µM (inactive); in the assay on ACHN, 71.8 µM (inactive). The GI50 in the assay with Malme-3M and in the assay with SNB-75 was > 100 µM (inactive) each time.
Take `O=C1CC2SC(COCc3ccccc3)(CCN2Cc2ccccc2)C1` (stereo not given): the GI50 in the assay on NCI/ADR-RES was 65 µM (inactive); in the assay with NCI-H23, 43.9 µM (inactive); with HT-29, 31.6 µM (inactive); with U-251 it was 66.8 µM (inactive); in the assay with SNB-19, > 100 µM (inactive); in the assay with IGROV-1, > 100 µM (inactive). In addition, the GI50 with MDA-MB-435 is 51.6 µM (inactive); in the assay with A498, > 100 µM (inactive); in the assay on CAKI-1, > 100 µM (inactive); in the assay with M14, 49.1 µM (inactive); with LOX IMVI, 31.8 µM (inactive); in the assay on CCRF-CEM, 65 µM (inactive). Also, the GI50 in the assay with KM12 was 52.2 µM (inactive); with SK-MEL-2, > 100 µM (inactive); with A549 it was 51.2 µM (inactive); with OVCAR-5, > 100 µM (inactive); in the assay with SN12C, > 100 µM (inactive); in the assay with ACHN, 82.2 µM (inactive). Moreover, the figures for the GI50 in the assay on Malme-3M and in the assay with SNB-75 were 39.3 µM (inactive) and > 100 µM (inactive), respectively.
As to `CCOC(=O)C1(CC(=O)O)CCCC1=O` (stereo not given), the GI50 with NCI/ADR-RES, with NCI-H23, in the assay with HT-29, in the assay on U-251, in the assay on SNB-19 and in the assay with IGROV-1 was > 100 µM (inactive) throughout. For the same molecule, the GI50 with MDA-MB-435, with A498, in the assay with CAKI-1, with M14, in the assay with LOX IMVI and with CCRF-CEM was > 100 µM (inactive) in each case. Further, the GI50 in the assay with KM12, with SK-MEL-2, with A549, in the assay on OVCAR-5, with SN12C and in the assay with ACHN was > 100 µM (inactive) each time. The GI50 in the assay on Malme-3M and in the assay with SNB-75 was > 100 µM (inactive) throughout.
Take `O=C(c1ccccc1)c1cc[n+](C2=C([N-]S(=O)(=O)c3ccccc3)C(=O)c3ccccc3C2=O)cc1`: the GI50 with NCI/ADR-RES is 9.38 µM (inactive); with NCI-H23 it was 3.12 µM (inactive); in the assay with HT-29, 14.4 µM (inactive); in the assay with U-251 it was 4.38 µM (inactive); in the assay on SNB-19 it was 13.8 µM (inactive); with IGROV-1, 9.35 µM (inactive). Further, the GI50 in the assay with MDA-MB-435 was 1.72 µM (inactive); in the assay with A498, 18.1 µM (inactive); with CAKI-1 it was 2.36 µM (inactive); with M14, 11.1 µM (inactive); with LOX IMVI, 2.42 µM (inactive); with CCRF-CEM, 2.1 µM (inactive). For the same molecule, the GI50 is 12.6 µM (inactive) with KM12; 3 µM (inactive) with SK-MEL-2; 14.5 µM (inactive) in the assay on A549; 19.2 µM (inactive) in the assay with OVCAR-5; 6.85 µM (inactive) with SN12C; 12.7 µM (inactive) in the assay on ACHN. Moreover, the GI50 in the assay with Malme-3M is 4.34 µM (inactive); in the assay with SNB-75 it was 11.6 µM (inactive).
As for `O=C1C(CN2CCCCC2)CCC1CN1CCCCC1` (stereo not given), the GI50 in the assay with NCI/ADR-RES is 37.4 µM (inactive); in the assay with NCI-H23 it was 23.1 µM (inactive); with HT-29, 20.9 µM (inactive); in the assay on U-251 it was > 46.7 µM (inactive); with SNB-19, > 100 µM (inactive); with IGROV-1 it was 32.1 µM (inactive). For the same molecule, the GI50 with MDA-MB-435 was 33 µM (inactive); in the assay on A498, 15.2 µM (inactive); with CAKI-1, 9.48 µM (inactive); in the assay on M14 it was 15.5 µM (inactive); with LOX IMVI, 16 µM (inactive); in the assay on CCRF-CEM it was 1.06 µM (active). In addition, the GI50 is > 54.7 µM (inactive) in the assay on KM12; 30.1 µM (inactive) with SK-MEL-2; > 96.6 µM (inactive) with A549; 11.4 µM (inactive) with OVCAR-5; 30.4 µM (inactive) in the assay on SN12C; 26 µM (inactive) with ACHN. Further, the results for the GI50 in the assay with Malme-3M and with SNB-75 were 17.7 µM (inactive) and > 47.8 µM (inactive), respectively.
With `CC(=O)NC1C(OCC(=O)NC(C)C(=O)NC(CCC(=O)NCCCCCNc2ccc([N+](=O)[O-])c3[nH]c4ccccc4c(=O)c23)C(N)=O)C(O)C(CO)OC1(C)OCc1ccccc1` (stereo not given), the GI50 in the assay on NCI/ADR-RES was > 50 µM (inactive); in the assay with NCI-H23, > 50 µM (inactive); with HT-29, 38.6 µM (inactive); in the assay with U-251, 39.3 µM (inactive); with SNB-19, 33.3 µM (inactive); in the assay with IGROV-1, > 50 µM (inactive). The GI50 in the assay with MDA-MB-435 was > 50 µM (inactive); with A498, > 50 µM (inactive); in the assay with CAKI-1 it was > 50 µM (inactive); in the assay with M14 it was > 50 µM (inactive); in the assay on LOX IMVI, > 50 µM (inactive); with CCRF-CEM it was 3.75 µM (inactive). Also, the GI50 is > 50 µM (inactive) in the assay on KM12; > 50 µM (inactive) in the assay on SK-MEL-2; > 50 µM (inactive) in the assay with A549; > 50 µM (inactive) in the assay with OVCAR-5; 19.6 µM (inactive) in the assay on SN12C; 31.6 µM (inactive) with ACHN. Also, the values for the GI50 in the assay on Malme-3M and with SNB-75 were 12 µM (inactive) and 24.8 µM (inactive), respectively.
